Legend:
[1] = test system: men suffering from round cell idiopathic syndrome; details: 15 mg per day during 3 months; men with round cell idiopathic syndrome; cited from earlier work
[2] = test system: fertile men and subfertile men; assay: Spermcount after oral administration of folic acid, zinc or both, versus initial spermcount; assay type: in vivo; set-up: key to Percentage improvement of spermcount after administration of active agents, compared to initial spermcount: 0 means about neutral; The number of + signs indicates activity; ++: The number of + signs indicates activity; +++: The number of + signs indicates activity; +++(+): The number of + signs indicates activity; details: for Percentage improvement of spermcount after administration of active agents, compared to initial spermcount: daily administration during 5 months (table head; text says three months)
spermatozoa = details: 10 mg over 30 days; cited from earlier work
fowl seminal plasma = details: zinc concentration above 3 μg per ml storage medium; cited from earlier work
[3] = test system: males that suffer from idopathic oligospermia; details: 220 mg zinc sulphate; idiopathic oligospermia; cited from earlier work

Nc1nc(=O)c2c([nH]1)NCC(CNc1ccc(C(=O)N[C@@H](CCC(=O)O)C(=O)O)cc1)N2C=O (mixture of isomers) [folinic acid]
spermatozoa number and fertility [1]: increases spermatozoa number and fertility

Nc1nc2ncc(CNc3ccc(C(=O)N[C@@H](CCC(=O)O)C(=O)O)cc3)nc2c(=O)[nH]1 [5 mg folate, folic acid]
Percentage improvement of spermcount after administration of active agents, compared to initial spermcount ([2]; fertile men): 0
sperm count ([2]; folate alone, especially subfertile men): increases sperm count
Percentage improvement of spermcount after administration of active agents, compared to initial spermcount ([2]; subfertile men): +++
sperm counts and motility and DNA content of spermatozoa (spermatozoa): did not result in an increase

O=S(=O)([O-])[O-].[Zn+2] [15 mg zinc, zinc sulphate]
sperm counts ([2]; both groups, so also in fertile men): increases sperm counts in both groups
Percentage improvement of spermcount after administration of active agents, compared to initial spermcount ([2]; fertile men): +
Percentage improvement of spermcount after administration of active agents, compared to initial spermcount ([2]; subfertile men): ++
fertility of fowl seminal plasma (fowl seminal plasma): reduced the fertility
sperm and number of spermatozoa having normal morfology and motility [3]: improved significantly
